Results published in US20240016943A1, “SYNTHETIC DNA BINDING DOMAINS AND USES THEREOF” (The University of Chicago, priority 2020, published 2024).
Starred links: 1 amine or outer side, 2 acyl side, 3 side chain; linkers in the order of their positions; H or OH if unused. Positions of bridges follow the written chain, without caps; N, C: chain ends. Non-standard residues stand in square brackets, D forms with d. Chains are numbered I, II in the order given. X1 = O=C1CC([*:2])C(=O)N1CC(=O)[*:1]; S5 = C=CCCC[C@](C)(N)C(=O)O; Nle = CCCC[C@H](N)C(=O)O; Aib = CC(C)(N)C(=O)O

Tests used:
[1] = tested on: duplex DNA probes E1, E2, and E3; assay: DNA probe specificity EMSA; format: binding; settings: STR69 1 μM, STR640 125 nM; for DNA motif specificity: B-Z 100 nM, probes E1, E2, E3
Description: (§1) For direct DNA binding experiments, STRs were serial diluted (3-fold increments) at 2× concentration in 20 μL of 1× binding buffer (20 mM HEPES pH 8.0, 150 mM NaCl, 5% glycerol, 1 mM EDTA, 2 mM MgCl2, 0.5 mg/mL BSA, 1 mM DTT, 0.05% NP-40). 20 μL of 10 nM IRD700-labeled E-box probe in 1× binding buffer was added and samples were incubated for 30 min at RT followed by 15 min at 4° C. 3.5 μL of each reaction was loaded on a 6% acrylamide, 0.5× TBE gel equilibrated to 4° C. Higher affinity compounds (e.g., STR116 and STR118) were run at 10-fold lower concentration of compound and 0.5 nM final concentration of IRD-labeled oligo. Electrophoresis was carried out for 60 min at 110 V and 4° C. with 0.5× TBE+1 mM MgCl2 running buffer. Gels were pre-run at 110 V for 60 min prior to sample loading. For specificity experiments, 25 nM STR116, 10 nM STR118, or 5 nM MAX, and 5 nM labeled E-box probe were incubated with 0, 5, 25, 125, or 625 nM unlabeled competitor oligo for 30 min at RT in binding buffer. For protein competition experiments, 1 nM TRD-Ebox oligo was added to a mixture of STR (0-1 mM) and 30 nM protein (MAX or MYC:MAX) and incubated for 30 minutes at room temperature in binding buffer. For DNA probe specificity experiments B-Z (100 nM), STR69 (1 μM), and STR640 (125 nM) and MAX (10 nM) were incubated with 1 nM IRD-labeled oligo and 0.01 mg/ml salmon sperm DNA for 30 minutes at RT in binding buffer. All samples were equilibrated to 4° C. for 15 minutes before loading onto 6% gel. Gels were imaged using an Odyssey Li-COR. ImageJ was used to quantify band intensity and fraction bound DNA was calculated by dividing band intensity of bound DNA by the band intensity of the free DNA from a vehicle treated lane. A four-parameter dose-response curve fit to a plot of normalized fraction bound DNA vs. log B-Z concentration yields an IC50 which was reported as the apparent KD.

[2] = tested on: E-box DNA; format: binding
Description: as §1, with “For DNA probe specificity experiments B-Z (100 nM), STR69 (1 μM), and STR640 (125 nM) and MAX (10 nM) were incubated with 1 nM IRD-labeled oligo and 0.01 mg/ml salmon sperm DNA for 30 minutes at RT in binding buffer. All samples were equilibrated to 4° C. for 15 minutes before loading onto 6% gel. Gels were imaged using an Odyssey Li-COR.” left out, “A four-parameter dose-response curve fit to a plot of normalized fraction bound DNA vs. log B-Z concentration yields an IC50 which was reported as the apparent KD.” left out

[3] = target: T1, Trypsin (Sus scrofa, UniProt P00761); assay: In vitro trypsin stability assay; format: in vitro ADME
T1 construct: purchased Thermo-Pierce
Description: Each STR, 30 μM, was dissolved in 330 μL of 20 mM phosphate buffer pH 7.4 in a microcentrifuge tube and heated to 37° C. on a tabletop shaker (500 rpm). 30 μL of the reaction mixture was added to 60 uL of quenching solution (ACN+3% formic acid with 500 nM fmoc-lysine-OH internal standard) for 0 s timepoint sample. Thermo-Pierce MS-Grade Trypsin was added to a final concentration of 0.5 μg/ml and additional 30 μL aliquots were quenched at indicated timepoints. Quenched samples were cooled to 4° C. and centrifuged at 20,000×G for 3 min. […] Intact STR was calculated by normalizing the background subtracted integrated area under the curve for the EIC of (M+4H)/4, ±0.5 mass units, where M is mass and H is hydrogen ion, to the integrated area under the curve for the A280 peak of the internal standard. Fraction intact STR was calculated by dividing the intact STR by the normalized STR signal in the initial 0 s sample. GraphPad Prism was used to plot fraction intact STR vs time, and the proteolytic half-life was derived using a non-linear one-phase decay with the plateau constant set equal to zero.

[4] = Solubility in RPMI media+10% FBS; format: physicochemical; settings: RPMI media with 10% FBS, read-out: soluble concentration
[5] = tested on: E-box probe; assay: Conditioned media binding assay (retained E-box binding by EMSA); format: in vitro ADME; settings: HeLa conditioned media, 37° C.
Description: HeLa cells were grown to 90% confluency in a 6 cm plate and the media was collected. 10 μM STR was resuspended in 0.5 mL of the conditioned media and incubated with gentle shaking at 37° C. At 0, 24 and 48 hrs., treatment media (2 μL) was diluted into 48 μL of 1× EMSA binding buffer containing 5 nM E-box probe. DNA binding was measured using an electrophoretic mobility shift assay. Fraction bound to E-box probe was calculated by dividing the band intensity of bound DNA by the sum of the bound DNA+free DNA.

[6] = Circular dichroism spectroscopy; format: physicochemical; settings: 25-85° C.
Description: Lyophilized STR samples were resuspended in 20 mM phosphate buffer pH 7.4 and diluted to 10 μM. Circular dichroism spectra were obtained on a Jasco J-170 using a 0.1 cm quartz cuvette with the following settings: wavelength, 260-180 nm; data pitch, 1.0 nm; scan rate, 50 nm min^−1; accumulations, 3; temperature, 25-85° C. with 6° C. increments. Means-Movement smoothing at the lowest setting was applied to the recorded data.

[7] = tested on: E-box oligonucleotide probe; assay: DNA competition (specificity) EMSA with unlabeled competitor oligo; format: binding; settings: 25 nM STR116, 10 nM STR118, or 5 nM MAX; 0-625 nM competitor
Description: as §1

T1 sequence (P00761 9-231): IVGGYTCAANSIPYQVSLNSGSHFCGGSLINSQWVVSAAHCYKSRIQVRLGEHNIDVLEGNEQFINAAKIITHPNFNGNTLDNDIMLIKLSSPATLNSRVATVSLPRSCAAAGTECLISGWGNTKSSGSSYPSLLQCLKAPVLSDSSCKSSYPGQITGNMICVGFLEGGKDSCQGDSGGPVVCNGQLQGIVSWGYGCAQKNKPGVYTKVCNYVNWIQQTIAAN

Ac-LRLKINSRERKRMHDLNIAMDK(ButMal)LREVMP-NH2 + Ac-SKIATLCLARNYILMLTNSL-NH2 (chain 1 XRLKINSRERKRMHDLNIAMDXLREVMX; chain 2 XKIATLCLARNYILMLTNSX; not fully specified; ButMal ligation; N-acetyl; C-terminal amides; (1)..(1) Xaa is acetyl-L; (22)..(22) Xaa is K(ButMal) (butyrlmaleimide-lysine); (28)..(28) Xaa is P-NH2; (1)..(1) Xaa is acetyl-S; (20)..(20) Xaa is L-NH2) [STR69]
DNA motif specificity [1]: show specificity for the OLIG2- and TFAP4-preferred motifs (target sequences in E3 and E2, respectively) | binding to the E-box motif [1]: minimal binding

Ac-RREIANSNERRRMQSINAGFQK(GlyMal)LKTLIP-NH2 + Ac-SKAAILCQTAEYIFRLRRKIHTLE-NH2 (chain 1 XREIANSNERRRMQSINAGFQXLKTLIX; chain 2 XKAAILCQTAEYIFRLRRKIHTLX; GlyMal ligation; N-acetyl; C-terminal amides; (1)..(1) Xaa is acetyl-R; (22)..(22) Xaa is K(GlyMal) (glycylmaleimide-lysine); (28)..(28) Xaa is P-NH2; (1)..(1) Xaa is acetyl-S; (24)..(24) Xaa is E-NH2) [STR640]
DNA motif specificity [1]: show specificity for the OLIG2- and TFAP4-preferred motifs (target sequences in E3 and E2, respectively) | binding to the E-box motif [1]: minimal binding

I: Ac-KRAHHNALERKRRDHIKDSFHKLRDSVP-NH2 / II: Ac-SRAQILCKATEYIQY[Nle]RRKN-NH2 (linker I:22-II:7 via X1) [B-Z]
EMSA Fraction bound (sDBD = 500 nM) [2]: 100% | trypsin proteolysis (in words) ([3]; LC-MS): rapidly proteolyzed at several positions

I: Ac-PRFQSA[S5]DKR[S5]HHNALERKRRDHIKDSFHKLRDSVP-NH2 / II: Ac-SRAQILCKATEYIQRLR[S5]KIR[S5]LE-NH2 (staple I:7-I:11, II:18-II:22; linker I:30-II:7 via X1) [B11-Z80]
solubility [4]: > 75 µM

I: Ac-PRFQSA[S5]DKR[S5]HHNALERKRRDHIKDSFHKLRDSVP-NH2 / II: Ac-SRAQILCKATEYIQYLR[S5]KIH[S5]LE-NH2 (staple I:7-I:11, II:18-II:22; linker I:30-II:7 via X1) [STR118, Ac-PRFQSA(S5)DKR(S5)HHNALERKRRDHIKDSFHK(GlyMal)LRDSVP-NH2 + Ac-SRAQILCKATEYIQYLR(S5)KIH(S5)LE-NH2]
stability in conditioned media (in words) [5]: increased stability in conditioned media | thermal stability by temperature-dependent CD [6]: highly thermally stable, with retention of helicity even at 85 °C

I: Ac-PRFQSA[S5]DKR[S5]HHNALERKRRDHIKDSFHKLRDSVP-NH2 / II: Ac-SR[Aib]QILCQATEYIQSLRR[S5]IHT[S5]E-NH2 (staple I:7-I:11, II:19-II:23; linker I:30-II:7 via X1) [B11-Z70]
solubility [4]: > 75 µM

I: Ac-PRFQSA[S5]DKR[S5]HHNALERKRRDHIKDSFHKLRDSVP-NH2 / II: Ac-SR[Aib]QILCQATEYIQ[S5][Nle]RR[S5]LHTHE-NH2 (staple I:7-I:11, II:15-II:19; linker I:30-II:7 via X1) [STR116, Ac-PRFQSA(S5)DKR(S5)HHNALERKRRDHIKDSFHK(GlyMal)LRDSVP-NH2 + Ac-SR(Aib)QILCQATEYIQ(S5)(Nle)RR(S5)LHTHE-NH2]
stability in conditioned media (in words) [5]: increased stability in conditioned media

MAX: Human MAX (residues 22-102) protein expressed with N-terminal hexahistidine tag, used in homodimeric form
competition by DNA in which the E-box had been replaced entirely [7]: no competition | competition by DNA with mutation of the two central E-box nucleotides (CG to TA) [7]: some competition | competition of E-box probe binding by excess unlabeled E-box oligonucleotide [7]: effectively competed | half-life in trypsin stability assay ([3]; 0.5 μg/ml trypsin, 37° C.): 20 s
